Data set [1] relates to Staphylococcus aureus. Briefly: Antibiofilm activity against methicillin-resistant Staphylococcus aureus 2 assessed as induction of biofilm eradication incubated for 24 hrs followed by 3 times wash out with water and subsequent compound addition measured after 24 hrs. Format: functional.
The test system of data set [2] is Staphylococcus aureus. Briefly: Antibiofilm activity against […] methicillin-resistant Staphylococcus aureus 2 assessed as induction of biofilm eradication incubated for 24 hrs followed by 3 times wash out with water and subsequent compound addition measured after 24 hrs. Format: functional.
Data set [3] has as its system Staphylococcus aureus. Briefly: Antibiofilm activity against methicillin-resistant Staphylococcus aureus 1707 assessed as induction of change in gene expression 0.625 uM after 20 hrs by RNA sequencing data based analysis relative to control. The class given is functional.
Data set [4] relates to Staphylococcus aureus. The data set is described as follows: Antibiofilm activity against methicillin-resistant Staphylococcus aureus assessed as increase in isdB expression at 0.625 uM after 4 hrs by RT-qPCR analysis relative to control. Format: functional. Background: In qPCR the cycle at which signal appears reflects the starting amount.
In data set [5] the test system is Staphylococcus aureus. The data set is described as follows: Antibacterial activity against Staphylococcus aureus by CLSI protocol based dilution method. The class given is functional.
For data set [6], the system named is Pseudomonas aeruginosa. Briefly: Growth inhibition of Pseudomonas aeruginosa PA14 after 24 hrs. The class given is functional, organism-based. Particulars: PA14, 24 h.
Data set [7] deals with Pseudomonas aeruginosa. Briefly: Growth inhibition of Pseudomonas aeruginosa PAO1 after 24 hrs. The class given is functional, organism-based. Particulars: PAO1, 24 h.
Data set [8] concerns Staphylococcus aureus. The data set is described as follows: Antibacterial activity against methicillin-resistant Staphylococcus aureus. Format: functional.
The subject of data set [9] is Klebsiella pneumoniae. The data set is described as follows: Antibacterial activity against Klebsiella pneumoniae. Format: functional.
For data set [10], the system named is Pseudomonas aeruginosa. The data set is described as follows: Antibacterial activity against Pseudomonas aeruginosa. Format: functional.
Data set [11] can be described thus: Drug accumulation in Escherichia coli MG1655 assessed per 10^12 CFU at 50 uM incubated for 10 mins under shaking condition by LC-MS/MS analysis. Format: ADME, K-12 substr. MG1655.
The test system of data set [12] is Staphylococcus aureus. Briefly: Antibacterial activity against Staphylococcus aureus ATCC 29213 by broth microdilution method. Format: functional.
Data set [13] has as its system Staphylococcus aureus. The data set is described as follows: Antibacterial activity against Staphylococcus aureus NRS3 by broth microdilution method. Format: functional. For orientation: Broth dilution looks for growth in wells or tubes with falling amounts of substance.
Data set [14] relates to Escherichia coli. The data set is described as follows: Antibacterial activity against Escherichia coli MG1655 by broth microdilution method. Particulars: K-12 substr. MG1655. Format: functional.
Data set [15] has as its system Escherichia coli. Briefly: Antibacterial activity against Escherichia coli ELZ4017 by broth microdilution method. The class given is functional.
For data set [16], the system named is Escherichia coli. The data set is described as follows: Antibacterial activity against Escherichia coli ELZ4045 by broth microdilution method. The class given is functional.
The test system of data set [17] is Escherichia coli. Briefly: Antibacterial activity against Escherichia coli ELZ4346 by broth microdilution method. Format: functional.
Data set [18] concerns Escherichia coli. Briefly: Antibacterial activity against Escherichia coli ELZ4081 by broth microdilution method. Format: functional.
For data set [19], the system named is Escherichia coli. Briefly: Antibacterial activity against Escherichia coli ELZ4072 by broth microdilution method. The class given is functional.
The subject of data set [20] is Escherichia coli. The data set is described as follows: Antibacterial activity against Escherichia coli ELZ4239 by broth microdilution method. Format: functional.
Data set [21] relates to Escherichia coli. Briefly: Antibacterial activity against Escherichia coli BAA-2469 by broth microdilution method. Format: functional.
For data set [22], the system named is Klebsiella pneumoniae. The data set is described as follows: Antibacterial activity against Klebsiella pneumoniae ATCC 27736 by broth microdilution method. Format: functional.
The test system of data set [23] is Klebsiella pneumoniae. Briefly: Antibacterial activity against Klebsiella pneumoniae 4-38 by broth microdilution method. The class given is functional.
Data set [24] deals with Klebsiella pneumoniae. Briefly: Antibacterial activity against Klebsiella pneumoniae 6-73 by broth microdilution method. The class given is functional.
Data set [25] deals with Enterobacter cloacae. The data set is described as follows: Antibacterial activity against Enterobacter cloacae ATCC 29893 by broth microdilution method. Format: functional.
For data set [26], the system named is Enterobacter cloacae. The data set is described as follows: Antibacterial activity against Enterobacter cloacae 1-60 by broth microdilution method. Format: functional.
In data set [27] the test system is Enterobacter cloacae. Briefly: Antibacterial activity against Enterobacter cloacae 3-46 by broth microdilution method. The class given is functional.
Data set [28] deals with Acinetobacter baumannii. The data set is described as follows: Antibacterial activity against Acinetobacter baumannii ATCC 19606 by broth microdilution method. Format: functional. Particulars: ATCC 19606 = CIP 70.34 = JCM 6841.
Data set [29] concerns Acinetobacter baumannii. Briefly: Antibacterial activity against Acinetobacter baumannii KB304 by broth microdilution method. The class given is functional.
For data set [30], the system named is Acinetobacter baumannii. The data set is described as follows: Antibacterial activity against Acinetobacter baumannii KB349 by broth microdilution method. The class given is functional.
In data set [31] the test system is Acinetobacter baumannii. The data set is described as follows: Antibacterial activity against Acinetobacter baumannii WO22 by broth microdilution method. The class given is functional.
The subject of data set [32] is Acinetobacter baumannii. Briefly: Antibacterial activity against Acinetobacter baumannii BD335 by broth microdilution method. The class given is functional.
Data set [33] concerns Acinetobacter baumannii. Briefly: Antibacterial activity against Acinetobacter baumannii IF101 by broth microdilution method. Format: functional.
Data set [34] concerns Pseudomonas aeruginosa. Briefly: Antibacterial activity against Pseudomonas aeruginosa PAO1 by broth microdilution method. Format: functional.

Data on six compounds can be found in ChEMBL document CHEMBL4321783, “Recent Progress in Natural-Product-Inspired Programs Aimed To Address Antibiotic Resistance and Tolerance” (J Med Chem, 2019).

Molecules are shown by their SMILES. Values after ≈ are worked out from the molar mass of the structure shown. Positions of bridges follow the written chain, without caps; N, C: chain ends. Non-standard residues stand in square brackets, D forms with d. Residues, ends and D or L forms follow the SMILES beside them. *: point of attachment. Phe(3,5-F2) = N[C@@H](Cc1cc(F)cc(F)c1)C(=O)O; Pip(4S-Me) = C[C@H]1CCN[C@H](C(=O)O)C1; Heptenoyl(2E) = CCCC/C=C/C(=O)*; aThr = C[C@H](O)[C@H](N)C(=O)O

On to `CN[C@H](CC(C)C)C(=O)N[C@H]1C(=O)N[C@@H](CC(N)=O)C(=O)N[C@H]2C(=O)N[C@H]3C(=O)N[C@H](C(=O)N[C@H](C(=O)O)c4cc(O)cc(O)c4-c4cc3ccc4O)[C@H](O)c3ccc(c(Cl)c3)Oc3cc2cc(c3O[C@@H]2O[C@H](CO)[C@@H](O)[C@H](O)[C@H]2O[C@H]2C[C@](C)(N)[C@H](O)[C@H](C)O2)Oc2ccc(cc2Cl)[C@H]1O` [VANCOMYCIN], for which the MBEC with Staphylococcus aureus [1] was above 2000 µM; with Staphylococcus aureus [2], 4 µM.
On to `Oc1c(Br)cc(I)c2nc3cc(Cl)c(Cl)cc3nc12`, for which the “fold change (FC)” value with Staphylococcus aureus [3] is “>=2”; in the data set on Staphylococcus aureus [4] it was 22.3.
Regarding `CCCC/C=C/C(=O)N[C@@H](Cc1cc(F)cc(F)c1)C(=O)N[C@@H]1C(=O)N2CCC[C@H]2C(=O)N2CC[C@H](C)C[C@H]2C(=O)N[C@@H](C)C(=O)N2CCC[C@H]2C(=O)O[C@H]1C` ({Heptenoyl(2E)}-[Phe(3,5-F2)][aThr]P[Pip(4S-Me)]AP; ester 2-C), the MIC (commonly the least concentration at which growth counts as inhibited) against Staphylococcus aureus [5] came to 0.0306 µM (≈ 0.024 µg/mL).
In the case of `CCCCCC[C@H](CCCCC[C@@H](O)C(N)=O)OC(=O)[C@@H]1CC=CN1C(=O)c1ccccc1O`, the IC50 (in general, the point on the concentration scale where inhibition reaches its midpoint) in the data set with Pseudomonas aeruginosa [6] was 67 to 130 nM; in the data set on Pseudomonas aeruginosa [7], 1000 nM.
Consider `CN(C)[C@@H]1C(O)=C(C(N)=O)C(=O)[C@@]2(O)C(O)=C3C(=O)c4c(O)c(NC(=O)CN5CCCC5)cc(F)c4C[C@H]3C[C@@H]12` [ERAVACYCLINE], for which the MIC against Staphylococcus aureus [8] lay in the range of 0.015 to 4 µg/mL (≈ 0.0269 to 7.16 µM); against Klebsiella pneumoniae [9], 0.03 to 16 µg/mL (≈ 0.0537 to 28.6 µM); with Pseudomonas aeruginosa [10] it was 0.06 to 64 µg/mL.
Consider `Cc1cc(=O)n(C)c2c3c4c(cc12)c(C)cc(=O)n4C(CN)CO3` (centres undefined), for which the Drug uptake in data set [11] is 1114 nmol. The MIC with Staphylococcus aureus [12] lay within 0.03 to 0.5 µg/mL (≈ 0.0922 to 1.54 µM); against Staphylococcus aureus [13], 0.03 to 0.5 µg/mL (≈ 0.0922 to 1.54 µM); against Escherichia coli [14] it was 0.5 to 16 µg/mL (≈ 1.54 to 49.2 µM); against Escherichia coli [15], 0.5 to 16 µg/mL (≈ 1.54 to 49.2 µM); against Escherichia coli [16] it was 0.5 to 16 µg/mL (≈ 1.54 to 49.2 µM); against Escherichia coli [17], 0.5 to 16 µg/mL (≈ 1.54 to 49.2 µM). Further, the MIC in the data set with Escherichia coli [18] lay within 0.5 to 16 µg/mL (≈ 1.54 to 49.2 µM); in the data set on Escherichia coli [19], 0.5 to 16 µg/mL (≈ 1.54 to 49.2 µM); with Escherichia coli [20], 0.5 to 16 µg/mL (≈ 1.54 to 49.2 µM); with Escherichia coli [21], 0.5 to 16 µg/mL (≈ 1.54 to 49.2 µM); with Klebsiella pneumoniae [22], 1 to 8 µg/mL (≈ 3.07 to 24.6 µM); against Klebsiella pneumoniae [23], 1 to 8 µg/mL (≈ 3.07 to 24.6 µM). Also, the MIC in the data set with Klebsiella pneumoniae [24] fell in the range of 1 to 8 µg/mL (≈ 3.07 to 24.6 µM); with Enterobacter cloacae [25], 0.5 to 4 µg/mL (≈ 1.54 to 12.3 µM); in the data set with Enterobacter cloacae [26] it was 0.5 to 4 µg/mL (≈ 1.54 to 12.3 µM); against Enterobacter cloacae [27], 0.5 to 4 µg/mL (≈ 1.54 to 12.3 µM); against Acinetobacter baumannii [28], 2 to 16 µg/mL (≈ 6.15 to 49.2 µM); against Acinetobacter baumannii [29], 2 to 16 µg/mL (≈ 6.15 to 49.2 µM). For the same compound, the MIC against Acinetobacter baumannii [30] is 2 to 16 µg/mL (≈ 6.15 to 49.2 µM); against Acinetobacter baumannii [31] it was 2 to 16 µg/mL (≈ 6.15 to 49.2 µM); in the data set with Acinetobacter baumannii [32] it was 2 to 16 µg/mL (≈ 6.15 to 49.2 µM); in the data set on Acinetobacter baumannii [33], 2 to 16 µg/mL (≈ 6.15 to 49.2 µM); in the data set on Pseudomonas aeruginosa [34], 16 µg/mL (≈ 49.2 µM).
